# Several values for one entry are separate records, joined by “and”; a condition that tells them apart may be missing. Equal values may be shown once. Read-outs that look alike come from different tables or passages of the source.
# Details: the molecule shown is the open-chain precursor, crosslinker bond, CH3CN/H2O 1:1, 0.1 mM, 25.0 °C
substance,measurement,setting,value
H-Ala-Cys-Tyr-Lys-Arg-Ser-Asp-Phe-Thr-Cys-Gly-Gly-Gly-Ser-NH2?,"ring closure, yield after HPLC",bis-Pd aryl reagent 6b (2 equiv)/Tris pH 7.5,85%
same,"ring closure, yield after HPLC",bis-Pd aryl reagent 6c (2 equiv)/Tris pH 7.5,70%
same,"ring closure, yield after HPLC",bis-Pd aryl reagent 6e (2 equiv)/Tris pH 7.5,100%
same,"ring closure, yield after HPLC",bis-Pd aryl reagent 6d (2 equiv)/Tris pH 7.5,84%
same,"ring closure, yield after HPLC","bis-Pd aryl reagent (2 equiv, not named)/Tris pH 7.5",79% and 92% and 94%
